# Read-outs that look alike come from different tables or passages of the source.
# Columns and labels:
# [1] = tested on: High level Aminoglycoside Resistance in Enterococci (HLAR); assay: Binding of fluorescent labelled antibiotic, resistant vs non-resistant form: HLAR; conditions: reduction in Streptomycin binding; HLAR Enterococci relative to non-resistant form; fluorescent label
# Experimental: (§1) An in-situ hybridisation protocol may be applied as laid down in patent application EP 06 021 267.7, which is incorporated herein by reference. The incubation with a labelled antibiotic may be performed at temperatures below the Tm of the hybridised probe. In a preferred embodiment the temperature is between about 25 and about 65° C., in a more preferred embodiment the temperature is between about 35° C. and about 59° C. In an even more preferred embodiment, the temperature is at about 52° C. The incubation time is preferably between about 1 and about 30 minutes. In a more preferred embodiment the incubation is made for about 15 minutes. After the incubation the slide may be submerged in 50% ethanol followed by a bath in pure ethanol. Both steps may be run for between about 1 and about 10 minutes. The preferred length of incubation is between about 2 and about 6 minutes. It is more preferred to incubate about 4 minutes. […]
# (§2) An antibiotic resistance, such as a resistance against penicillin, may be detected in a protocol comprising the steps:
# (§3) Table 4 indicates the alteration of the amount of detectable labelled antibiotics in clinically relevant micro-organisms in its resistant form relative to its non-resistant form. The amount is expressed in % change of fluorescence (decrease and increase, respectively) of an antibiotic which carries a fluorescent label.
# 23S rRNA = conditions: cited from earlier work
# [2] = tested on: Vancomycin resistant SA (VRSA); assay: Binding of fluorescent labelled antibiotic, resistant vs non-resistant form: VRSA; design: species or system Staphylococcus aureus; conditions: binding of labelled Vancomycin relative to non-resistant form
# Text: (§4) Another preferred application is the detection of the binding of Vancomycin to surface proteins of Staphylococcus aureus which are anchored to the cell wall peptidoglycan. Vancomycin resistant Staphylococci bind the antibiotic to such an extent that it renders Vancomycin ineffective. Labelled Vancomycin therefore will preferably bind to resistant organisms.
# (§5) An in-situ hybridisation protocol may be applied as laid down in patent application EP 06 021 267.7, which is incorporated herein by reference. The incubation with a labelled antibiotic may be performed at temperatures below the Tm of the hybridised probe. In a preferred embodiment the temperature is between about 25 and about 65° C., in a more preferred embodiment the temperature is between about 35° C. and about 59° C. In an even more preferred embodiment, the temperature is at about 52° C. The incubation time is preferably between about 1 and about 30 minutes. […]
# as §2, §3
# [3] = tested on: Vancomycin resistant Staph (VRS); assay: Binding of fluorescent labelled antibiotic, resistant vs non-resistant form: VRS; design: species or system Staphylococci (CNS); conditions: increased binding of Vancomycin; VRS relative to non-resistant form; fluorescent label
# Text: as §4, §5, §2, §3
# [4] = tested on: Vancomycin intermediary SA (VISA); assay: Binding of fluorescent labelled antibiotic, resistant vs non-resistant form: VISA; design: species or system Staphylococcus aureus; conditions: increased binding of Vancomycin; VISA relative to non-resistant form; fluorescent label
# Experimental: as §1, §2, §3
# [5] = tested on: Vancomycin resistant Enterococci (VRE); assay: Binding of fluorescent labelled antibiotic, resistant vs non-resistant form: VRE; conditions: reduction of vancomycin binding; VRE relative to non-resistant form; fluorescent label
# Experimental: as §1, §2, §3
# [6] = tested on: Vancomycin resistant Enterococci (VRE); conditions: stated as resistance mechanism; cited from earlier work
# [7] = tested on: Extended Spectrum β-Lactamase (ESBL) Enterobacteriaceae; assay: Binding of fluorescent labelled clavulanic acid: ESBL Enterobacteriaceae; conditions: increase, ESBL Enterobacteriaceae relative to non-resistant form
# Experimental: as §1, §2, §3
# [8] = tested on: Extended Spectrum β-Lactamase (ESBL) Pseudomonas spp.; assay: Binding of fluorescent labelled clavulanic acid: ESBL Pseudomonas spp.; conditions: increase, ESBL Pseudomonas spp. relative to non-resistant form
# Experimental: as §1, §2, §3
# [9] = tested on: Extended Spectrum β-Lactamase (ESBL) Acinetobacter; assay: Binding of fluorescent labelled clavulanic acid: ESBL Acinetobacter; conditions: increase, ESBL Acinetobacter relative to non-resistant form
# Experimental: as §1, §2, §3
# [10] = tested on: Extended Spectrum β-Lactamase (ESBL) BCC; assay: Binding of fluorescent labelled clavulanic acid: ESBL BCC; conditions: increase, ESBL BCC relative to non-resistant form
# Experimental: as §1, §2, §3
# [11] = tested on: Extended Spectrum β-Lactamase (ESBL) Stenotrophomonas maltophilia; assay: Binding of fluorescent labelled clavulanic acid: ESBL Stenotrophomonas maltophilia; conditions: increase, ESBL Stenotrophomonas maltophilia relative to non-resistant form
# Experimental: as §1, §2, §3
# [12] = tested on: Community acquired MRSA (CA-MRSA); format: binding, Staphylococcus aureus
# Experimental: The incubation with a labelled antibiotic may be performed at temperatures below the Tm of the hybridised probe. In a preferred embodiment the temperature is between about 25 and about 65° C., in a more preferred embodiment the temperature is between about 35° C. and about 59° C. In an even more preferred embodiment, the temperature is at about 52° C. The incubation time is preferably between about 1 and about 30 minutes. In a more preferred embodiment the incubation is made for about 15 minutes. After the incubation the slide may be submerged in 50% ethanol followed by a bath in pure ethanol. Both steps may be run for between about 1 and about 10 minutes. The preferred length of incubation is between about 2 and about 6 minutes. It is more preferred to incubate about 4 minutes. The slides may then be air-dried (e.g. on a hot plate) and the cells may be embedded in a balanced salt mounting medium.
# [13] = tested on: Methicillin Resistant Staphylococcus aureus (MRSA); assay: Binding of fluorescent labelled antibiotic, resistant vs non-resistant form: MRSA; conditions: reduction of Penicillin binding; MRSA relative to non-resistant form; antibiotic carries a fluorescent label
# Experimental: as §1, §2, §3
# [14] = tested on: Border.line oxacillin resistant SA (BORSA); assay: Binding of fluorescent labelled antibiotic, resistant vs non-resistant form: BORSA; design: species or system Staphylococcus aureus; conditions: reduction of penicillin binding; BORSA relative to non-resistant form; fluorescent label
# Experimental: as §1, §2, §3
# [15] = tested on: Oxacillin resistant SA (ORSA); assay: Binding of fluorescent labelled antibiotic, resistant vs non-resistant form: ORSA; design: species or system Staphylococcus aureus; conditions: reduction of penicillin binding; ORSA relative to non-resistant form; fluorescent label
# Experimental: as §1, §2, §3
molecule,measurement,setting,value
"[H]/N=C(/N)N[C@H]1[C@H](O)[C@@H](O)[C@H](O[C@@H]2O[C@@H](C)[C@](O)(C=O)[C@H]2O[C@@H]2O[C@@H](CO)[C@H](O)[C@@H](O)[C@@H]2NC)[C@@H](N/C(N)=N\[H])[C@@H]1O [Streptomycin, reference compound]",% Change in Fluorescenc,[1],>80%
same,Phenotype,"23S rRNA; 23S rRNA position 2661 ""G to C"", E. coli, when expressed with Smr, hyperaccurate S12 mutation",streptomycin dependent
CN[C@H](CC(C)C)C(=O)N[C@H]1C(=O)N[C@@H](CC(N)=O)C(=O)N[C@H]2C(=O)N[C@H]3C(=O)N[C@H](C(=O)N[C@H](C(=O)O)c4cc(O)cc(O)c4-c4cc3ccc4O)[C@H](O)c3ccc(c(Cl)c3)Oc3cc2cc(c3O[C@@H]2O[C@H](CO)[C@@H](O)[C@H](O)[C@H]2O[C@H]2C[C@](C)(N)[C@H](O)[C@H](C)O2)Oc2ccc(cc2Cl)[C@H]1O [Vancomycin],Effect of resistance on fluorescence,[2],Increased
same,% Change in Fluorescenc,[3],>50%
same,% Change in Fluorescenc,[4],20-50%
same,% Change in Fluorescenc,[5],>80%
same,Reduced affinity to Van,[6],Reduced affinity to Van by 3 orders of magnitude
O=C(O)[C@H]1/C(=C/CO)O[C@@H]2CC(=O)N21 [clavulanic acid],% Change in Fluorescenc,[7],>80%
same,% Change in Fluorescenc,[8],>80%
same,% Change in Fluorescenc,[9],>80%
same,% Change in Fluorescenc,[10],>80%
same,% Change in Fluorescenc,[11],>80%
C=C(NC(=O)C(=C)NC(=O)c1csc(C2=N[C@@H]3c4csc(n4)[C@H]4NC(=O)c5csc(n5)[C@H]([C@](C)(O)[C@@H](C)O)NC(=O)[C@H]5CSC(=N5)/C(=C/C)NC(=O)[C@H]([C@@H](C)O)NC(=O)c5csc(n5)[C@]3(CC2)NC(=O)[C@H](C)NC(=O)C(=C)NC(=O)[C@H](C)NC(=O)[C@H]([C@@H](C)CC)N[C@@H]2C=Cc3c([C@H](C)O)cc(nc3[C@H]2O)C(=O)O[C@@H]4C)n1)C(N)=O [thiostrepton],Phenotype: binding in RNA fragments,"23S rRNA; 23S rRNA position 1056 G to C, E. coli",weakened in RNA
same,Phenotype: drug binding affinity,"23S rRNA; 23S rRNA position 1067 A to C, E. coli",affinity is reduced similarly.
same,Phenotype: drug binding affinity,"23S rRNA; 23S rRNA position 1067 A to G, E. coli",affinity is reduced similarly.
same,Phenotype: drug binding affinity,"23S rRNA; 23S rRNA position 1067 A to U, E. coli",affinity is reduced similarly.
same,Phenotype: thiostrepton resistance in poly (U) translation,"23S rRNA; 23S rRNA position 1067 A to U, E. coli, mutant constituted 30% of the total 23S rRNA pool in the ribosomes",ribosomes; exhibited 30%
"COc1cc(Cc2cnc(N)nc2N)cc(OC)c1OC [trimethoprim, Trimethoprim]",Effect of resistance on fluorescence,"[12]; CA-MRSA, binding capacity for the labelled antibiotic",Maintaims binding
Penicillin,% Change in Fluorescenc,[13],> to ≈80%
same,% Change in Fluorescenc,"[12]; reduction of penicillin binding, CA-MRSA relative to non-resistant form, antibiotic carries a fluorescent label",> to ≈80%
same,% Change in Fluorescenc,[14],> to ≈80%
same,% Change in Fluorescenc,[15],> to ≈80%
spiramycin,Phenotype,"23S rRNA; 23S rRNA position 2611 ""C to G"", Chlamydomonas reinhardtii, Gauthier et al. 1988",spiramycin resistance
same,Phenotype,"23S rRNA; 23S rRNA position 2611 ""C to G"", Yeast mitochondria, Sor and Fukahara 1984",spiramycin resistance
